# Experimental data published in patent US20090048332A1, “Natural Novel Antioxidants” (HEJ Research Insitute, priority 2007, published 2009).
# Experiment: superoxide radical scavenging assay (SOR; NADH/PMS/NBT)
# Format: biochemical
# Conditions: for radical scavenging activity in the SOR assay: qualitative statement; for IC50: super oxide scavenging assay, formazan absorbance at 560 nm after three minutes, concentration needed to scavenge 50% of super oxide radicals, read-out: SOI (IC50 ± SEM); for IC50 compared with propyl gallate standard: comparison in words, refers to Table 1
# Experimental: The reaction mixture contained 10 μL of test samples (1 mM in dimethylsulfoxide), 90 μL of 0.1 M phosphate buffer (pH 7.4), 40 μL of (280 μM) β-nicotanamide adenine dinucleotide (NADH), 40 μL of (80 μM) nitro blue tetrazolium (NBT). The reaction was initiated by the addition of 20 μL of (8 μM) phenazine methosulphate (PMS). The solutions of NADH, NBT and PMS were prepared in phosphate buffer. The formation of superoxide was monitored by measuring the absorbance of the blue formazan dye after three minutes at 560 nm against the corresponding blank solutions in microtitre plate using Elisa (multiple reader spectra Max-3400). IC50 value represents concentration of compounds needed to scavenge 50% of super oxide radicals. Propyl gallate was used as a positive control. All chemicals used were of analytical grade (Sigma Chemicals, USA).
SMILES,IC50,IC50 compared with propyl gallate standard,radical scavenging activity in the SOR assay,SOR activity on per-methylation (permethylated derivatives of the depsides)
"Cc1cc(OC(=O)c2c(C)cc(O)cc2O)cc(O)c1C(=O)OC[C@H](O)[C@H](O)CO [Erythrin, erythrin]",127 ± 0.97 µM,–,exceptionally high percentage of radical scavenging activity,–
"COc1ccc(O)c(C(C)(C)C)c1 [BHA, butylated hydroxy anisole, reference compound]",96 ± 1.75 µM,–,–,–
COC(=O)c1c(C)cc(OC(=O)c2c(C)cc(OC)cc2OC)cc1OC [permethylated lecanoric acid],–,–,–,lost
"CCCOC(=O)c1cc(O)c(O)c(O)c1 [propyl gallate, Propyl gallate, reference compound]",106 ± 1.7 µM,–,–,–

# Second part, led by results:
IC50,IC50 compared with propyl gallate standard,SMILES,radical scavenging activity in the SOR assay,SOR activity on per-methylation (permethylated derivatives of the depsides)
81.97 ± 0.31 µM,lower than the propyl gallate standard,"CCCc1cc(OC)cc(O)c1C(=O)Oc1c(OC)cc(CCC)c(C(=O)O)c1O [Sekikiac acid, sekikaic acid]",exceptionally high percentage of radical scavenging activity,–
97.9 ± 1.6 µM,lower than the propyl gallate standard,"CCCCCc1c2c(cc(O)c1C(=O)O)OC(=O)c1c(cc(OC)cc1C(=O)CCCC)O2 [Lobaric acid, lobaric acid]",exceptionally high percentage of radical scavenging activity,–
91.5 ± 2.1 µM,lower than the propyl gallate standard,"Cc1cc(OC(=O)c2c(C)cc(O)cc2O)cc(O)c1C(=O)O [Lecanoric acid, lecanoric acid]",exceptionally high percentage of radical scavenging activity,–
